Our source for the T/C values is PubChem BioAssay AID192 (DTP/NCI, 2004).

This experiment concerns BDF1 mice, B16 melanoma ip, median survival T/C. Briefly: NCI In Vivo Anticancer Drug Screen. Data for tumor model B16 Melanoma (intraperitoneal) in B6D2F1 (BDF1) mice. To be noted: endpoint: median survival time, higher = longer survival. In a few lines:
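Survival or tumor size is measured after treatment of tumor-bearing mice and normalised to the vehicle-treated control group.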

Structures are written as SMILES. Where “and” joins values, the source holds several entries; their conditions need not be identical. Equal values may be shown once. Inconclusive results and toxic doses are left out.

Regarding `O=C(O)c1c2c(nc3ccccc13)Cc1ccccc1-2`, the T/C is, setting by setting: (dose: 3.12 mg/kg/injection, schedule: Q01DX009 (ip), vehicle: Klucel (hydroxypropylcellulose) (HPC)) 100 % of control; (dose: 6.25 mg/kg/injection, schedule: Q01DX009 (ip), vehicle: Klucel (hydroxypropylcellulose) (HPC)) 96 % of control and 103 % of control; (dose: 6.25 mg/kg/injection, schedule: Q01DX009 (ip), vehicle: water) 89 % of control; (dose: 12.5 mg/kg/injection, schedule: Q01DX009 (ip), vehicle: Klucel (hydroxypropylcellulose) (HPC)) 98 % of control and 103 % of control and 119 % of control; (dose: 12.5 mg/kg/injection, schedule: Q01DX009 (ip), vehicle: water) 96 % of control and 108 % of control; (dose: 25.0 mg/kg/injection, schedule: Q01DX009 (ip), vehicle: water) 112 % of control and 114 % of control. The T/C runs as follows: (dose: 30.0 mg/kg/injection, schedule: Q03HX008 (ip), vehicle: water) 96 % of control; (dose: 30.0 mg/kg/injection, schedule: Q03HX016 (ip), vehicle: water) 107 % of control; (dose: 30.0 mg/kg/injection, schedule: Q03HX024 (ip), vehicle: water) 101 % of control; (dose: 44.0 mg/kg/injection, schedule: Q01DX005 (iv), vehicle: water) 102 % of control; (dose: 44.0 mg/kg/injection, schedule: Q01DX009 (ip), vehicle: water) 120 % of control; (dose: 44.0 mg/kg/injection, schedule: Q01DX009 (sc), vehicle: water) 102 % of control. Moreover, the T/C is 118 % of control (dose: 44.0 mg/kg/injection, schedule: Q03HX008 (ip), vehicle: water); 102 % of control (dose: 44.0 mg/kg/injection, schedule: Q03HX016 (ip), vehicle: water); 118 % of control (dose: 44.0 mg/kg/injection, schedule: Q03HX024 (ip), vehicle: water); 107 % of control (dose: 67.0 mg/kg/injection, schedule: Q01DX001 (ip), vehicle: water); 92 % of control (dose: 67.0 mg/kg/injection, schedule: Q01DX005 (iv), vehicle: water); 169 % of control (dose: 67.0 mg/kg/injection, schedule: Q01DX009 (ip), vehicle: water). Further, the T/C reads like this: (dose: 67.0 mg/kg/injection, schedule: Q01DX009 (oral), vehicle: water) 99 % of control; (dose: 67.0 mg/kg/injection, schedule: Q01DX009 (sc), vehicle: water) 108 % of control; (dose: 67.0 mg/kg/injection, schedule: Q03HX008 (ip), vehicle: water) 106 % of control; (dose: 67.0 mg/kg/injection, schedule: Q03HX016 (ip), vehicle: water) 104 % of control; (dose: 67.0 mg/kg/injection, schedule: Q03HX024 (ip), vehicle: water) 112 % of control; (dose: 67.0 mg/kg/injection, schedule: Q04DX003 (ip), vehicle: water) 116 % of control. Besides, the T/C was 106 % of control (dose: 67.0 mg/kg/injection, schedule: Q08DX002 (ip), vehicle: water); 106 % of control (dose: 89.0 mg/kg/injection, schedule: Q01DX001 (ip), vehicle: Klucel (hydroxypropylcellulose) (HPC)); 102 % of control (dose: 100.0 mg/kg/injection, schedule: Q01DX001 (ip), vehicle: water); 101 % of control (dose: 100.0 mg/kg/injection, schedule: Q01DX001 (oral), vehicle: water); 100 % of control (dose: 100.0 mg/kg/injection, schedule: Q01DX005 (iv), vehicle: water); 94 % of control (dose: 100.0 mg/kg/injection, schedule: Q01DX009 (oral), vehicle: water). For the same compound, the T/C runs as follows: (dose: 100.0 mg/kg/injection, schedule: Q01DX009 (sc), vehicle: water) 108 % of control; (dose: 100.0 mg/kg/injection, schedule: Q03HX008 (ip), vehicle: water) 120 % of control; (dose: 100.0 mg/kg/injection, schedule: Q03HX016 (ip), vehicle: water) 118 % of control; (dose: 100.0 mg/kg/injection, schedule: Q03HX024 (ip), vehicle: water) 112 % of control; (dose: 100.0 mg/kg/injection, schedule: Q04DX003 (ip), vehicle: water) 110 % of control; (dose: 100.0 mg/kg/injection, schedule: Q08DX002 (ip), vehicle: water) 113 % of control. In addition, the T/C (dose: 133.0 mg/kg/injection, schedule: Q01DX009 (ip), vehicle: Klucel (hydroxypropylcellulose) (HPC)) was 156 % of control; the T/C (dose: 133.0 mg/kg/injection, schedule: Q04DX003 (ip), vehicle: Klucel (hydroxypropylcellulose) (HPC)) is 124 % of control; the T/C (dose: 150.0 mg/kg/injection, schedule: Q01DX001 (ip), vehicle: water) is 98 % of control and 104 % of control; the T/C (dose: 150.0 mg/kg/injection, schedule: Q01DX001 (oral), vehicle: water) is 98 % of control; the T/C (dose: 150.0 mg/kg/injection, schedule: Q01DX005 (iv), vehicle: water) is 102 % of control; the T/C (dose: 150.0 mg/kg/injection, schedule: Q01DX009 (oral), vehicle: water) is 90 % of control. The T/C is, setting by setting: (dose: 150.0 mg/kg/injection, schedule: Q01DX009 (sc), vehicle: water) 115 % of control; (dose: 150.0 mg/kg/injection, schedule: Q03HX008 (ip), vehicle: water) 121 % of control; (dose: 150.0 mg/kg/injection, schedule: Q04DX003 (ip), vehicle: water) 108 % of control and 122 % of control; (dose: 150.0 mg/kg/injection, schedule: Q08DX002 (ip), vehicle: water) 121 % of control; (dose: 200.0 mg/kg/injection, schedule: Q01DX001 (ip), vehicle: Klucel (hydroxypropylcellulose) (HPC)) 124 % of control; (dose: 200.0 mg/kg/injection, schedule: Q01DX009 (ip), vehicle: water) 152 % of control. For the same compound, the T/C reads like this: (dose: 225.0 mg/kg/injection, schedule: Q01DX001 (ip), vehicle: water) 93 % of control and 110 % of control; (dose: 225.0 mg/kg/injection, schedule: Q01DX001 (oral), vehicle: water) 94 % of control; (dose: 225.0 mg/kg/injection, schedule: Q01DX005 (iv), vehicle: water) 104 % of control; (dose: 225.0 mg/kg/injection, schedule: Q01DX009 (oral), vehicle: water) 92 % of control; (dose: 225.0 mg/kg/injection, schedule: Q01DX009 (sc), vehicle: water) 104 % of control; (dose: 225.0 mg/kg/injection, schedule: Q04DX003 (ip), vehicle: water) 107 % of control and 111 % of control. Also, the T/C (dose: 225.0 mg/kg/injection, schedule: Q08DX002 (ip), vehicle: water) is 111 % of control; the T/C (dose: 337.0 mg/kg/injection, schedule: Q01DX001 (ip), vehicle: water) is 98 % of control; the T/C (dose: 337.0 mg/kg/injection, schedule: Q01DX001 (oral), vehicle: water) is 99 % of control; the T/C (dose: 337.0 mg/kg/injection, schedule: Q01DX009 (oral), vehicle: water) is 97 % of control; the T/C (dose: 337.0 mg/kg/injection, schedule: Q04DX003 (ip), vehicle: water) was 105 % of control and 112 % of control; the T/C (dose: 450.0 mg/kg/injection, schedule: Q01DX001 (ip), vehicle: Klucel (hydroxypropylcellulose) (HPC)) was 111 % of control. Also, the T/C (dose: 506.0 mg/kg/injection, schedule: Q01DX001 (oral), vehicle: water) was 93 % of control.

Turning to `O=C(O)C1(C(=O)O)CCCCC1.[NH-]CC1(C[NH-])CCCCC1.[Pt+2]`, the T/C (dose: 6.25 mg/kg/injection, schedule: Q01DX009 (ip), vehicle: saline) was 121 % of control; the T/C (dose: 12.5 mg/kg/injection, schedule: Q01DX009 (ip), vehicle: saline) was 122 % of control; the T/C (dose: 25.0 mg/kg/injection, schedule: Q01DX009 (ip), vehicle: saline) was 122 % of control.

In the case of `CCOCCN1CCN(CCCN2c3ccccc3Sc3ccc(C(F)(F)F)cc32)CC1`, the T/C is 105 % of control (dose: 0.09 mg/kg/injection, schedule: Q01DX009 (ip), vehicle: water); 113 % of control (dose: 0.19 mg/kg/injection, schedule: Q01DX009 (ip), vehicle: water); 100 % of control (dose: 0.39 mg/kg/injection, schedule: Q01DX009 (ip), vehicle: water).

Turning to `Cc1ccc(Cl)cc1N=Cc1ccccc1O`, the T/C by setting is: (dose: 100.0 mg/kg/injection, schedule: Q04DX003 (ip), vehicle: saline with Tween-80) 104 % of control; (dose: 200.0 mg/kg/injection, schedule: Q04DX003 (ip), vehicle: saline with Tween-80) 100 % of control; (dose: 400.0 mg/kg/injection, schedule: Q04DX003 (ip), vehicle: saline with Tween-80) 104 % of control.

With `C[CH2][Pb]([CH2]C)([CH2]C)[O]C(=O)COc1ccccc1`, the T/C (dose: 1.5 mg/kg/injection, schedule: Q01DX009 (ip), vehicle: saline with Tween-80) is 104 % of control; the T/C (dose: 3.0 mg/kg/injection, schedule: Q01DX009 (ip), vehicle: saline with Tween-80) was 107 % of control; the T/C (dose: 6.25 mg/kg/injection, schedule: Q01DX009 (ip), vehicle: saline with Tween-80) was 108 % of control.
